Results: US9606108B2, “Deformable platforms for biological assays” (President and Fellows of Harvard College, priority 2011, dated 2017)

Test system: human airway smooth muscle (HASM) cells
Experiment: High-throughput traction microscopy (HTTM): RMS traction of HASM cell monolayers on gel in 96-well plates, before and after adding drug
Assay type: cell-based
Details: for normalized traction (RMS traction after adding drug/RMS traction before adding drug): control drugs on zero-hit drug plate, FIG. 14; for change in cellular contraction (RMS traction) with increasing doses: FIG. 13, control drugs
Experimental: Acrylamide gels with 1.8 kPa stiffness and 200-μm thickness were made in 96-well plates, fluorescent markers were coated in a single layer (0.2 μm) onto gel surfaces, and the gel plates were mounted on a fluorescent microscope with motorized stage. On each gel, HASM cells from a single donor were cultured to near confluence. Each well was seeded with 20,000 cells and was serum deprived for 2 days. FIG. 9 illustrates an example layout of a multiwell plate. Imaging of the fluorescent markers included 10× magnification, at 37° C. Three rounds of imaging was performed per plate. For each imaging, two florescent images and one phase image was acquired. Since a common problem for circular shape dishes is rotation of wells, the multi-well plate is optionally a rectangular shape, so that one can easily find the same location in each well. Images of fluorescent markers in each well are taken before cell seeding. In addition, one can store the exact z-position of best sensor focus on each well. It is known that the multi-well plate may not be perfectly flat (e.g., there can be sagging in the middle of the plate). In addition, small changes in sensor depth focus can jeopardize image quality and in turn, traction calculation. Therefore, a prescanning step can aid in screening. After prescanning, wells are seeded with cells and a regular cell culture protocol can be followed. In example 3, a baseline-scanning typically takes fifteen minutes. Drugs can be added and the plates can be incubated for a certain time (e.g., in example 3, incubation occurred over a period of one hour). After incubation, a drug-scan can occur. Thus, three images (prescan, baseline-scan, and drug-scan) are acquired. FIG. 7 is a series of images illustrating a set of three example acquired images. At 700 is a fluorescent image of a bottom bead (0.5 μm). At 710 is a phase contrast image. At 720 is a fluorescent image of a yellow/green bead 0.2 μm. Root mean square values of the absolute traction forces were calculated before and after adding drugs. FIG. 10 illustrates an example process flow diagram 1000 for high-throughput screening using cellular contraction. For example, using the process illustrated in FIG. 10 and a 96 well plate, each scan takes approximately 15 minutes. Since each plate goes through a baseline scan, drug incubation (60 minutes), and a drug scan, it takes approximately 90 minutes per plate. Drug-induced changes in traction provide a simple and physiologically relevant index to identify hits, i.e., those molecules that appreciably reduce cellular traction forces. FIG. 8 is a series of images illustrating six absolute cell traction maps. At 800-850 are cell traction maps for 0.5% Dimethylsulfoxide (DMSO), 1% Fetal Bovine Serum (FBS), 10 μM Y27632, both before and after adding drugs. Y27632 is an inhibitor of the Rho-associated protein kinase, which is known to reduce cellular contraction. […] The treatment of 1% FBS increased RMS traction by 77% from the baseline. The treatment of 10 uM Y-27632 decreased RMS traction by 71% from the baseline. The ratio of RMS tractions of before and after drug treatment (or, normalized contraction) is an index to evaluate the effects of drugs in both stiffening and softening responses.

SMILES | measured change in RMS traction (ratio of RMS tractions before and after drug treatment, normalized contraction) (10 μM Y27632, FIG. 8) | decrease of RMS traction from the baseline (10 uM Y-27632) | normalized traction (RMS traction after adding drug/RMS traction before adding drug) | change in cellular contraction (RMS traction) with increasing doses | decrease in cellular contraction (increasing doses of isoproterenol, FIG. 13) | normalized traction (iso 50 μM, FIG. 12)
C[C@@H](N)[C@H]1CC[C@H](C(=O)Nc2ccncc2)CC1 [Y27632] | 0.29 | 71% | decreased traction | decreasing cellular contraction in a dose dependent manner | – | –
CC(C)NCC(O)c1ccc(O)c(O)c1 (centres unmarked) [isoproterenol] | – | – | decreased traction | did not appear dose dependent | more than 50% | below 0.5
